The subject of this assay is passive cutaneous anaphylaxis. In words: Inhibition of passive cutaneous anaphylaxis (PCA test). Conditions: Rattus norvegicus, po; rats, p.o., 10 minutes before ovoalbumin challenge i.p. The format is in vivo, rats (Wistar). The method, then: For example, the substances have an inhibiting action on the release of endogenic mediators from mast cells or basophilic leucocytes which leads to allergic reactions. The doses to be used vary, of course, depending on the nature of the substance used, on the mode of administration and on the condition to be treated. In general, however, satisfactory results are achieved in animal experiments with doses of from 0.05 to 75 mg. per kg of body weight.
Description of the test method to determine the inhibition of passive cutaneous anaphylaxis (PCA test, see Arch.int. pharmacology 252 (1981) 316-326).
To prepare the IgE-antiovoalbumin serum, used in the test, by the method of Mota (Immunology 7, (1964) 681) and J. Goose (Immunology 16 (1969) 749), male Wistar rats of 200-250 g. body weight were sensitised by subcutaneous injection of 1 mg. of ovoalbumin and 1 ml. of Bordatella pertussis suspension ("Vaxicoq" Merieux 3.10^10 organisms/ml.). After 14 days, the animals are exsanguinated and the blood is centrifuged. The antiserum thus obtained is stored at […].
Non-sensitised rats are injected, in each case, with 0.1 ml. of antiserum into the skin at four different places on their shaven backs. After 72 hours, a solution of the test compound or, for comparison, only the solvent, is administered orally, and 10 minutes later, 5 mg. of ovoalbumin and 5 mg. of blue dyestuff (Evans blue) in 0.9% strength NaCl solution are administered intraperitoneally. After 30 minutes, the animals are sacrificed and the diameters of the blue spots formed at the sites injected with antiserum are measured. The inhibiting effect of the test substance is determined from the size of the blue spots which appear.
The example numbers given for the compounds of the formula I relate to the preparation Examples below.

As usually defined, the ED50 is the dose at which the effect has come halfway, by size or by number of responders. Lower therefore signals an effect at a small dose. `O=c1cc(-c2ccccc2)n(-c2ccccc2)n1CCCN1CCN(c2ccccn2)CC1` [Example 1, 1,5-Diphenyl-2-{3-[4-(2-pyridyl)-piperazin-1-yl]-propyl}-pyrazolin-3-one] yielded an ED50 of 0.8 mg/kg.

In the case of `O=c1cc(-c2ccc(Cl)cc2)n(-c2ccccc2)n1CCCN1CCN(c2ccccn2)CC1` [Example 13], the ED50 amounted to 8.5 mg/kg. As for `O=c1cc(-c2ccccc2)n(-c2ccccc2)n1CCCN1CCN(c2ccc(F)cc2)CC1` [Example 22], the 50% effect level (ED50) was put at a dose of 9.8 mg/kg.

The molecule `Cc1ccnc(N2CCN(CCCn3c(=O)cc(-c4ccccc4)n3-c3ccccc3)CC2)c1` [Example 27] had an ED50 of 8.2 mg/kg.

For the origin of these results see US4442102A, “1,5-Diphenylpyrazolin-3-one compounds, process and intermediates for preparation thereof and pharmaceutical compositions containing same” (Kali-Chemie Pharma GmbH, priority 1981, dated 1984).
